Data taken from patent publication US10370356B2, “Pyridinone dicarboxamide for use as bromodomain inhibitors” (GlaxoSmithKline Intellectual Property (No. 2) Limited, priority 2015, dated 2019).
Counter-ions that a name gives are not always drawn.

Molecular target: T1, BRD4 BD2 (Homo sapiens, UniProt O60885, Y97A)
T1 construct: BRD4 (1-477) (Y97A) and (Y390A); made in house; host or cells: E. coli (pET15b vector)
Experiment: BRD4 BD2 mutant TR-FRET competition assay
Assay type: binding
Conditions: average of N recorded values, read-out: BRD4 BD2 IC50 (average value) (converted)

SMILES | IC50
CNC(=O)c1cc(C(=O)NCCC2CCNCC2)cn(Cc2cccc3[nH]ccc23)c1=O [Example 56, 1-((1H-Indol-4-yl)methyl)-N^3-methyl-2-oxo-N5-(2-(piperidin-4-yl)ethyl)-1,2-dihydropyridine-3,5-dicarboxamide] | 15.8 nM

Same assay, conditions: read-out: pIC50 in the BRD4 BD2 assay (converted)

SMILES | IC50
CNC(=O)c1cc(C(=O)NCCC2CCCCN2)cn(Cc2ccccc2)c1=O (stereo not drawn) [Example 40, 1-Benzyl-N^3-methyl-2-oxo-N^5-(2-(piperidin-2-yl)ethyl)-1,2-dihydropyridine-3,5-dicarboxamide hydrochloride] | 100 to 1000 nM
CNC(=O)c1cc(C(=O)NC2CCCS(=O)(=O)C2)cn(Cc2ccccc2)c1=O (stereo not drawn) [Example 42, 1-Benzyl-N^5-(1,1-dioxidotetrahydro-2H-thiopyran-3-yl)-N^3-methyl-2-oxo-1,2-dihdyropyridine-3,5-dicarboxamide] | 1000 to 100000 nM
CNC(=O)c1cc(C(=O)NC2CCS(=O)(=O)C2)cn(Cc2ccccc2)c1=O (stereo not drawn) [Example 43, 1-Benzyl-N^5-(1,1-dioxidotetrahydrothiophen-3-yl)-N^3-methyl-2-oxo-1,2-dihydroypridine-3,5-dicarboxamide] | 100 to 1000 nM
CNC(=O)c1cc(C(=O)NC2CCS(=O)(=O)CC2)cn(Cc2ccccc2)c1=O [Example 44, 1-Benzyl-N^5-(1,1-dioxidotetrahydro-2H-thiopyran-4-yl)-N^3-methyl-2-oxo-1,2-dihydropyridine-3,5-dicarboxamide] | 100 to 1000 nM
CNC(=O)c1cc(C(=O)NCCCN2CCCCC2)cn(Cc2ccccc2)c1=O [Example 45, 1-Benzyl-N^3-methyl-2-oxo-N^5-(3-(piperidin-1-yl)propyl)-1,2-dihydropyridine-3,5-dicarboxamide hydrochloride] | 100 to 1000 nM
CNC(=O)c1cc(C(=O)NC[C@H]2CCCOC2)cn(Cc2ccccc2)c1=O [Example 46, (R)-1-Benzyl-N^3-methyl-2-oxo-N^5-((tetrahydro-2H-pyran-3-yl)methyl)-1,2-dihydropyridine-3,5-dicarboxamide] | 100 to 1000 nM
CNC(=O)c1cc(C(=O)NC[C@@H]2CCCOC2)cn(Cc2ccccc2)c1=O [Example 47, (S)-1-Benzyl-N^3-methyl-2-oxo-N^5-((tetrahydro-2H-pyran-3-yl)methyl)-1,2-dihydropyridine-3,5-dicarboxamide] | 100 to 1000 nM
CNC(=O)c1cc(C(=O)NCC2CCS(=O)(=O)C2)cn(Cc2ccccc2)c1=O (stereo not drawn) [Example 48, 1-Benzyl-N^5-((1,1-dioxidotetrahydrothiophen-3-yl)methyl)-N^3-methyl-2-oxo-1,2-dihydropyridine-3,5-dicarboxamide] | 1000 to 100000 nM
CNC(=O)c1cc(C(=O)NCC2CCOCC2)cn(Cc2ccccc2)c1=O [Example 49, 1-Benzyl-N^3-methyl-2-oxo-N^5-((tetrahydro-2H-pyran-4-yl)methyl)-1,2-dihydroopyridine-3,5-dicarboxamide] | 100 to 1000 nM
CNC(=O)c1cc(C(=O)NC2CCCOC2)cn(Cc2ccccc2)c1=O (stereo not drawn) [Example 50, 1-Benzyl-N^3-methyl-2-oxo-N^5-(tetrahydro-2H-pyran-3-yl)-1,2-dihdyropyridine-3,5-dicarboxamide] | 100 to 1000 nM
CNC(=O)c1cc(C(=O)NCCCN2CCN(C)CC2)cn(Cc2ccccc2)c1=O [Example 51, 1-Benzyl-N^3-methyl-N^5-(3-(4-methylpiperazin-1-yl)propyl)-2-oxo-1,2-dihydropyridine-3,5-dicarboxamide] | 100 to 1000 nM
CNC(=O)c1cc(C(=O)NCCCN2CCS(=O)(=O)CC2)cn(Cc2ccccc2)c1=O [Example 52, 1-Benzyl-N^5-(3-(1,1-dioxidothiomorpholino)propyl)-N^3-methyl-2-oxo-1,2-dihydropyridine-3,5-dicarboxamide] | 100 to 1000 nM
CNC(=O)c1cc(C(=O)NCC2CCS(=O)(=O)CC2)cn(Cc2ccccc2)c1=O [Example 53, 1-Benzyl-N^5-((1,1-dioxidotetrahydro-2H-thiopyran-4-yl)methyl)-N^3-methyl-2-oxo-1,2-dihydropyridine-3,5-dicarboxamide] | 1000 to 100000 nM
CNC(=O)c1cc(C(=O)NCCC2CCNCC2)cn(Cc2cccc3[nH]ccc23)c1=O [Example 56, 1-((1H-Indol-4-yl)methyl)-N^3-methyl-2-oxo-N5-(2-(piperidin-4-yl)ethyl)-1,2-dihydropyridine-3,5-dicarboxamide] | ≤ 100 nM
